The subject of the assay is PKC. Briefly: Micellar PKC screening assay. The assay is classed as biochemical. From the text: The N-substituted diaminoanthraquinone, 1b, (1,4-bis-[[3'-(diethylamino)propyl]amino]anthraquinone), was identified as a PKC inhibitor in the micellar PKC screening assay and in platelets. […] Spectrophotometric analysis of 1b and lc indicated they were excellent chromophores with absorbance maxima at 648 and 600 nm in chloroform, respectively, and extinction coefficients of approximately 20,000. At these wavelengths, there was minimal absorbance by cellular components contained in the chloroform phase. These properties of 1b and 1c were utilized to determine the time course of accumulation of these compounds in MDR MCF7 Adr 10 cells.
The activities of 1a, 1b, 1c and 1d and mitoxantrone, an anthraquinone antineoplastic drug, were evaluated in vinblastine drug accumulation assays performed by the following method. […] Mitoxantrone was identified as a PKC inhibitor in miceliar PKC assays. Compound 1d (1,4-bis-[[2-(4-morpholino)ethyl]amino]anthraquinone) was only evaluated in cellular studies.

The values that follow come from patent US5436243A, “Aminoanthraquinone derivatives to combat multidrug resistance” (priority 1993, dated 1995).

Turning to `O=C1c2ccccc2C(=O)c2c(NCCCN3CCOCC3)ccc(NCCCN3CCOCC3)c21` [Compound 1c, 1,4-bis-[[3'(4-morpholino)propyl]amino]anthraquinone], the “PKC activity in micellar PKC screening assay” value is reported as “marginal PKC inhibitory activity”.
